Target: T1, Beta-secretase 2 (Homo sapiens, UniProt Q9Y5Z0)
T1 sequence (Q9Y5Z0 whole entry): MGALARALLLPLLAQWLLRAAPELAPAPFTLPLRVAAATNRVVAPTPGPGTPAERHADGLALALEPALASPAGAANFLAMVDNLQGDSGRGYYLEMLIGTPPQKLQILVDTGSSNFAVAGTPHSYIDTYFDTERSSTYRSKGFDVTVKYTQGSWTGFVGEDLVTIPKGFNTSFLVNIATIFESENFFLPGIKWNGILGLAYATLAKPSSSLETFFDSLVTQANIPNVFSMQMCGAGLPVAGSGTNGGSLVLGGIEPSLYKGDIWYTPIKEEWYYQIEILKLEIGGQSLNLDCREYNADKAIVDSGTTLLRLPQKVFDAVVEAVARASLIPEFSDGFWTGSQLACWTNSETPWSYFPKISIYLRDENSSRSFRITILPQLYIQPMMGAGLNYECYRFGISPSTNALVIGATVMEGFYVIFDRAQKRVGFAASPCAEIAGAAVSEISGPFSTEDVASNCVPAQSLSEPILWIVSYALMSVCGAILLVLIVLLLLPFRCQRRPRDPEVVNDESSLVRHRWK
Assay: Enzyme Inhibition Assay

## CCNc1cc(C(=O)N[C@@H](Cc2ccccc2)[C@H](O)CNCc2cccc(C(F)(F)F)c2)cc(N2CCCCS2(=O)=O)c1 [BMCL193664 Compound 24]
  IC50: 1410 nM

From BindingDB's records for doi:10.1016/j.bmcl.2009.03.165 (Gsk, 2009)
